Results as given in patent US20190335749A1, “Adjustable Release Pesticide Tablet Formulations” (priority 2018, published 2019).

Columns and labels:
[1] = cited from earlier work
[2] = TFM release rate in flow chamber, 11 L of water per minute; format: physicochemical; conditions: flow of 11 L of water per minute; 20 g TFM; FIG. 8, FIG. 9
Description: To scale up from the tablet press, a hand-driven compression clamp was assembled in a fashion to create a compressed 20 g TFM cylinder 1 inch in diameter or combination of tablets adding to 20 g total TFM. Variables investigated were matrix type (tea bag vs porous cotton mesh), tablet size, formulation, and compression strength of formulation. The resulting tablets were placed into a flow chamber with a flow of 11 L of water per minute and aliquots were taken at designated time periods to evaluate TFM release rates.
Tablets H, I and J were all prepared according to Tablet E except that increasing amounts of sand were added as a density modifier to ensure tablets remained submerged.

Structure (SMILES): O=C(O)COc1ccc(Cl)cc1Cl [neutral 2,4-D, 2,4-Dichlorophenoxyacetic Acid]
- solubility in water [1]: less water soluble

Structure (SMILES): [Cu+2].[OH-].[OH-] [Copper hydroxide]
- solubility in water [1]: extremely low solubility

Structure (SMILES): O=[N+]([O-])c1ccc([O-])cc1C(F)(F)F.[K+] [TFM phenoxide salt]
- TFM release rate [2]: releases the fastest
